{
  "source": "patent US20240358862A1",
  "about": "“Synthesis Method and Application of a Near-infrared Probe GGa-ICG specific binding to PSCA” (Guangzhou Shiyun Biotechnology Co., Ltd, priority 2022, published 2024)",
  "key": {"[1]": {"assay": "Fluorescence depth detection (tissue penetration depth)", "assay_type": "physicochemical", "conditions": "excited at 780 nm, signals detected after 5 minutes", "experimental": "The tissue penetration depth of ICG, GGa-ICG, and ssDNA-ICG was detected using a fluorescence spectrometer at depths of 1, 2, 3, 4, and 5 mm. Fluorescence was excited at a wavelength of 780 nm and fluorescence signals were detected after 5 minutes to compare signal-to-noise ratios and observe the fluorescence signal penetration depth."}, "[2]": {"test_system": "prostate cancer cell lines", "assay": "Cell binding by fluorescence microscope / flow cytometry", "assay_type": "cell-based, human", "conditions": "200 nM probe", "experimental": "Therefore, 200 nM of GGa-ICG and ssDNA-ICG were used to confirm their specific binding. The method is as follows: • a. The human prostate cancer cell lines PC-3, DU145, LNCaP, 22RV1, immortalized normal human prostate epithelial cell line RWPE1, and human cervical cancer cell line Hela, as well as MCF7 cells obtained from the American Type Culture Collection (ATCC), were used in this study. All cell lines were cultured at 37° C. and 5% CO2 in a humidified environment. […]\nAfter the cells reach a confluency of over 80%, they were passaged and grown for 24-48 hours until they reached a confluency of over 50%. They were then washed once with PBS (without Ca and Mg ions), twice with cold washing buffer, and incubated at room temperature (4° C. for the internalization inhibition group) for 30 minutes with the sample buffer containing near-infrared fluorescence probes GGa-ICG, ssDNA-ICG, and ICG to a final concentration of 200 nM (or as specified). The cells were observed under a fluorescence microscope or analyzed by flow cytometry after digestion with trypsin without EDTA. […]"}, "[3]": {"biological_target": "T1, PSCA (Homo sapiens, UniProt O43653)", "T1 sequence (O43653 12-83)": "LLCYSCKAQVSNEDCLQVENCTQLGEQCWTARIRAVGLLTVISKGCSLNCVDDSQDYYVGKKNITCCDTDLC", "assay": "Pull-down assay", "assay_type": "binding", "design": "Membrane proteins of PC-3 cells were extracted; endogenous in cells; host or cells: PC-3", "conditions": "PC-3 membrane proteins, Western blotting with anti-PSCA antibody", "experimental": "Membrane proteins of PC-3 cells were extracted and incubated with agarose beads, agarose-conjugated GGa-ICG, or an agarose-conjugated library. The resulting pull-down mixture containing proteins was analyzed by Western blotting using a PSCA-specific antibody. The captured proteins were analyzed by SDS-PAGE gel and Coomassie blue staining, followed by Western blotting using an anti-PSCA antibody."}, "[4]": {"biological_target": "T2, PSCA on PC-3 cells (Homo sapiens, UniProt O43653)", "T2 construct": "Membrane proteins of PC-3 cells were extracted; endogenous in cells; host or cells: PC-3", "T2 sequence (O43653 12-83)": "T1 sequence (O43653 12-83)", "assay": "Antibody competition experiment by flow cytometry", "assay_type": "cell-based", "conditions": "200 nM GGa-ICG, 10 μg/mL anti-PSCA-FITC", "experimental": "A suspension of 5×10^5 cells of PC-3 or other cell lines was incubated with 200 nM of GGa-ICG or anti-PSCA-FITC antibody in 100 μL of binding buffer on ice for 30 minutes, washed again, and subjected to flow cytometry analysis (FACS Calibur instrument, BD Biosciences): 10,000 events were collected for each sample. ICG-labeled ssDNA-ICG was used as a negative control. For the antibody competition experiment, 5×10^5 cells were incubated with 200 nM of GGa-ICG in binding buffer on ice for 30 minutes, followed by the addition of 10 μg/mL of anti-PSCA-FITC antibody and further incubation for 30 minutes as the GGa-ICG blocking group. 10 μg/mL of anti-PSCA-FITC was incubated in binding buffer on ice for […], followed by the addition of 200 nM of GGa-ICG and further incubation for 30 minutes as the anti-PSCA-FITC blocking group. Both 200 nM of GGa-ICG and 10 μg/mL of anti-PSCA-FITC antibody were incubated on ice for 30 minutes as the combined group. After washing, the cells were resuspended and subjected to flow cytometry analysis.\nTo confirm the results of the mass spectrometry, the location of GGa-ICG and PSCA on PC-3 cells was first examined. To achieve this, PC-3 cells were incubated with […]."}, "[5]": {"test_system": "subcutaneous transplantation tumor models", "assay": "In vivo visualization in subcutaneous transplantation tumor models of other cancers", "description": "PSCA is expressed at high levels in various tumors such as prostate cancer, bladder cancer, kidney cancer, breast cancer, colon cancer, lung cancer, pancreatic cancer, etc. Using the aforementioned method, T24 bladder cancer cells, Cakil renal cancer cells, MDA-MB468 breast cancer cells, HT29 colon cancer cells, PANC1 pancreatic cancer cells, NCI-H460 lung cancer cells, and other cell lines were stained with GGa-ICG for flow cytometry analysis. Positive cell lines were used to establish subcutaneous transplantation tumor models to detect the visualization of GGa-ICG in vivo."}, "[6]": {"assay": "Toxicity test of GGa-ICG (serum enzymatic testing)", "assay_type": "in vivo", "conditions": "serum of nude mice 72 hours after injection", "experimental": "Blood serum was collected from nude mice injected with GGa-ICG for 72 hours and subjected to enzymatic testing."}, "[7]": {"test_system": "prostate cancer lesions (PC-3 xenograft)", "assay": "In vivo imaging in PC-3 mouse xenograft model", "design": "species or system BALB/c nude mice", "experimental": "Male BALB/c nude mice (BALB/c-nude) were purchased from Beijing SLAC Laboratory Animal Co., Ltd. Five-week-old nude mice were subcutaneously injected with 5×10^6 PC-3 cells on the back. The tumor was allowed to grow for 15 to 20 days until it reached a diameter of 0.5-1.5 cm. The BALB/c nude mice bearing tumors were anesthetized with sedatives and anesthetics. Once the mice were immobilized, a designated dose (0.1 mg, 0.5 mg, 1 mg, 2 mg per injection) of GGa-ICG or ssDNA-ICG was injected through the tail vein. At certain time points, fluorescent images of live mice were collected using the IVIS Lumina II in vivo imaging system. For ex vivo fluorescent experiments, tumor-bearing mice that were intravenously injected with GGa-ICG or ssDNA-ICG were euthanized by cervical dislocation 1 hour after injection under anesthesia. After dissection, organs including brain, liver, kidney, spleen, lung, heart, and tumor tissue were imaged using the IVIS Lumina II in vivo imaging system as described above."}, "[8]": {"conditions": "doses of 0.1-2 mg/animal, tail vein"}},
  "data": [
    {"substance": "GGa-ICG: near-infrared probe: PSCA-binding nucleic acid aptamer GGa linked at 3′ to an ICG derivative dye (DNA TGCCACTACAGCTGGTTCGGTTTGGTGACTTCGTTCTTCGTTGTGGT; 3'-ICG dye, further chemistry not given here)", "values": [
      {"measurement": "penetration depth", "setting": "[1]", "result": "~6", "unit": "mm"},
      {"measurement": "binding affinity of PC3, VCap and LNCap cell lines relative to DU-145, 22RV1 cells", "setting": "[2]", "result": "stronger"},
      {"measurement": "specific binding to prostate cancer cell lines", "setting": "[2]", "result": "could specifically bind"},
      {"measurement": "pull-down of PSCA", "setting": "[3]", "result": "easily pulled down"},
      {"measurement": "relationship with PSCA antibody in flow cytometry", "setting": "[4]", "result": "competitive relationship"},
      {"measurement": "in vivo binding in multiple cancer types", "setting": "[5]", "result": "consistent with PSCA expression"},
      {"measurement": "in vivo toxicity (serological test)", "setting": "[6]", "result": "did not show in vivo toxicity"},
      {"measurement": "time of optimal detection after injection", "setting": "[7]; [8]", "result": "8 to 12", "unit": "h"},
      {"measurement": "time until which detection lasted", "setting": "[7]; [8]", "result": "24 to 48", "unit": "h"},
      {"measurement": "binding to prostate cancer lesions in vivo", "setting": "[7]; intravenous injection, at 2, 4, and 8 hours", "result": "specifically bound"},
      {"measurement": "metabolism pathway", "setting": "[7]; mouse, in vivo", "result": "partially metabolized via the liver and kidney pathways"},
      {"measurement": "time within which probe in the organs was essentially metabolized", "setting": "[7]; organs of tumor-bearing mice", "result": "≤ 24", "unit": "h"}
    ]}
  ]
}
